This note sets out measurements from patent US20120165403A1, “METHODS OF INHIBITING THE ACTIVITY OF HSP90 AND/OR ARYL HYDROCARBON RECEPTOR” (UNIVERSITY OF ROCHESTER, priority 2004, published 2012).

For experiment [1], the target named is T1, ARNT (Mus musculus, UniProt P53762).
T1 construct: made in house; host or cells: coupled transcription/translation in rabbit reticulocyte lysate (TNT, Promega), 35S-labelled
Description: Affinity chromatography on EGCG-conjugated Sepharose, in vitro translated ARNT. Format: binding, murine. To be noted: 35S-ARNT in vitro translated in RRL. An excerpt:
(§1) Murine AhR and ARNT cDNA (obtained from J. Whitlock and O. Hankinson, respectively) were inserted into pcDNA3 (Invitrogen, Carlsbad, Calif.). Chicken hsp90 constructs (FIG. 5), c90711hsp (wild-type), c90G94D (wild-type point mutant gly94→Asp (Grenert et al., J. Biol. Chem. 272:23843-23850 (1997), which is hereby incorporated by reference in its entirety), c90D92A (wild-type point mutant Asp92→Ala (Sullivan et al., J. Biol. Chem. 268:20373-20379 (1993), which is hereby incorporated by reference in its entirety), c90N221 (wild-type truncation mutant encoding a.a. 221-728 (Sullivan et al., J. Biol. Chem. 268:20373-20379 (1993), which is hereby incorporated by reference in its entirety)), c90N303 (a.a. 303-728) and c90N538 (a.a. 538-728) were kind gifts from Dr. D. Toft (Rochester, Minn.). The C-terminal truncation mutant c900507 (a.a. 1-221) was obtained from Dr. L. Neckers (Rockville, Md.) (Grenert et al., J. Biol. Chem. 272:23843-23850 (1997); Marcu et al., J. Biol. Chem. 275:37181-37186 (2000), which are hereby incorporated by reference in their entirety). Human p23 cDNA was excised from pQE80-p23 (obtained from W. Chan Stockton, Calif.) by sequential digests using the restriction enzymes Sad (3′-end) and BamHI (5′-end) and inserted into the similarly digested pET28a (Novagen, Madison, Wis.). […]

Experiment [2] deals with hsp90. Description: Affinity chromatography on EGCG-conjugated Sepharose, Hepa cytosol hsp90. Format: binding, mouse.
For experiment [3], the target named is T2, p23 (Homo sapiens, UniProt Q15185).
T2 construct: made in house; host or cells: coupled transcription/translation in rabbit reticulocyte lysate (TNT, Promega), 35S-labelled
T2 sequence (Q15185 1-160): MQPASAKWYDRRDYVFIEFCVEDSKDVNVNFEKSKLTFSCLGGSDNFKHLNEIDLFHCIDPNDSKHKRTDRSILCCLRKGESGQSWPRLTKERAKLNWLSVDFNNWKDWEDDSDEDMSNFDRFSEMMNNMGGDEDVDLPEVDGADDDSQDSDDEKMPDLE
Description: Affinity chromatography on EGCG-conjugated Sepharose, in vitro translated p23. Format: binding. To be noted: 35S-p23 in vitro translated in RRL.
Excerpt: as §1

Experiment [4] deals with hsp90. Description: Affinity chromatography on EGCG-conjugated Sepharose, hsp90 inherent to RRL. Format: binding, rabbit. The note with it: immunoblotting. As to the method: EGCG was conjugated to cyanogen bromide (CNBr)-activated Sepharose (Sigma). EGCG (2.5 mg) was dissolved in 5004 coupling buffer (0.1M NaHCO3, 0.5M NaCl, pH 6.0). CNBr-activated Sepharose was swelled and washed in 1 mM HCl on a sintered glass filter followed by a wash with coupling buffer. CNBr-activated Sepharose beads were added to the EGCG in coupling buffer at a final concentration of 5 mg EGCG/ml of wet gel. The coupling solution containing EGCG and Sepharose was mixed end-over end at 4° C. overnight. Remaining active groups were blocked for 2 h at room temperature in Tris-HCl (0.1M, pH 8). EGCG-conjugated Sepharose was washed with three cycles of alternating pH wash buffers (Buffer 1: 0.1M acetate, 0.5M NaCl, pH4.0; Buffer 2: 0.1M Tris-HCl, 0.5M NaCl, pH 8.0). […]
Approximately 25 μL of 1:4 diluted RRL containing ^35S-labeled in vitro transcribed protein was incubated with 40 μL of either unconjugated or EGCG-conjugated Sepharose beads in binding buffer (50% slurry). […] Protein was transferred to PVDF membrane (Millipore, Bedford, Mass.). ^35S-labeled AhR, ARNT, p23, XAP2, and hsp90 truncated and point mutants were detected by Phosphoimaging. Hsp90 inherent to RRL was detected by immunoblotting using an anti-hsp90 monoclonal antibody (Stressgen Victoria, BC Canada) followed by secondary antibody coupled to horseradish peroxidase (Jackson Immuno Research, West Grove, Pa.). […]
In general terms: A western blot detects proteins with antibodies after separation by electrophoresis.

T1 sequence (P53762 whole entry): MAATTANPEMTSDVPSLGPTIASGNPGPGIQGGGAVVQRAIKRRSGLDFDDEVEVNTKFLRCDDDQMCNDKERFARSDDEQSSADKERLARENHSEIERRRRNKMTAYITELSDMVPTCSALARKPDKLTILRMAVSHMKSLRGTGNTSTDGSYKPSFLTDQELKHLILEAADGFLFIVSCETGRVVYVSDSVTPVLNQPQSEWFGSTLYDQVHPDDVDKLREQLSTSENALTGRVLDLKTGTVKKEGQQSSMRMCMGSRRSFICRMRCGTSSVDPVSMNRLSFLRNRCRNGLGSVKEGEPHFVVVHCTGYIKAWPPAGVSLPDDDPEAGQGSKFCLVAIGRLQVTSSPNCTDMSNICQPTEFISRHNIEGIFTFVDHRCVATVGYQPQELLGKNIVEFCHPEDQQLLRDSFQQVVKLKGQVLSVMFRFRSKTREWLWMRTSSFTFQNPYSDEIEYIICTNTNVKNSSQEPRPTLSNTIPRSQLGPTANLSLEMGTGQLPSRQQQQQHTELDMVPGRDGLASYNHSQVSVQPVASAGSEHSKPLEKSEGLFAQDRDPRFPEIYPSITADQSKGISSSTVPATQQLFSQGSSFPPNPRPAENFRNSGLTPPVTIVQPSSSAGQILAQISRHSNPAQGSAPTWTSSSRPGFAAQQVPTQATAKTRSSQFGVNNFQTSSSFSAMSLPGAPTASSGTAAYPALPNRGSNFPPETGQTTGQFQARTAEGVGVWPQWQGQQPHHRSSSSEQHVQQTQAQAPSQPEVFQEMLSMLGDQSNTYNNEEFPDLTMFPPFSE

With `O=C(O[C@@H]1Cc2c(O)cc(O)cc2O[C@@H]1c1cc(O)c(O)c(O)c1)c1cc(O)c(O)c(O)c1` [EGCG, epigallocatechin gallate], in experiment [1], the “binding of ARNT to immobilized EGCG” value is recorded as “incapable of binding immobilized EGCG”. The “binding of hsp90 to EGCG-Sepharose” value in experiment [2] is “also eluted from EGCG-Sepharose”; in experiment [4] it was “eluted from EGCG-Sepharose”. Moreover, in experiment [3], the “binding of p23 to immobilized EGCG” value is recorded as “incapable of binding immobilized EGCG”.
